According to US8420605B2, “Hydrogel compositions” (The University of Strathclyde, priority 2005, dated 2013):
Peptide text beside a SMILES is read from it. * marks the point of attachment. Fmoc = O=C(OCC1c2ccccc2-c2ccccc21)*

Tests used:
Assay type in all cases: cell-based
[1] = test system: bovine chondrocytes; assay: Culture of chondrocytes on/in hydrogel scaffold (proliferation and retention of phenotype); conditions: cell culture of up to 7 days
Procedure: Bovine chondrocytes were isolated from cartilage of the proximal side of the metacarpalphalangeal joint, washed in PBS and incubated overnight in Dulbeccos Modified Eagles Medium (DMEM) supplemented with 10% foetal calf serum, 100 units ml^−1 penicillin/streptomycin and 0.85 mM ascorbic acid. The cartilage was finely chopped and incubated with pronase type E (700 units ml^−1) (BDH Ltd., Poole, UK) in medium for 2 h followed by collagenase type 1a (300 units ml^−1) (SIGMA-ALDRICH Co. Ltd., Poole, UK) in medium for 2 h. The cell suspension was centrifuged at 1500 rpm for 5 min to pellet the cells. The cells were washed twice in medium and seeded directly onto the peptide scaffolds (and tissue culture plastic control) or encapsulated within the scaffolds during the gelation stage at a cell density of 5×10^5 ml^−1 in medium. The cultures were maintained in an incubator at 37° C. with a humidified atmosphere of 5% CO2 for up to 4 weeks. Chondrocytes were used up to passage 5.
Finally, all three gels prepared (ie. entries 1, 2 and 3) were tested for their ability to support proliferation and retention of phenotype of bovine chondrocytes. […]
The rounded cell shape is the typical phenotype for chondrocytes. […] Two-photon fluorescence microscopy was used to observe samples stained with DAPI, a fluorescent nucleic acid stain that enables visualisation of cell nuclei.

[2] = test system: human adult dermal fibroblasts; assay: 2D culture on surface of self-assembled peptide hydrogel, cell phenotype under inverted light microscope; conditions: for appearance of fibroblasts on top of hydrogel: 10 mM/L gel
Procedure: An initial 2D culture of human adult dermal fibroblasts was carried out on the surface of 10 mM/L Fmoc-Phe-Phe-OH self-assembled peptide hydrogels and cell phenotype was investigated under inverted light microscope.
(§1) Generally, 0.0107 gram of Fmoc-Phe-Phe-OH was weighed in a glass vial and sterilized for 30 minutes by an ultraviolet light with bottles of distilled water, filtered NaOH (Sodium Hydroxide, 0.5 M/L), filtered HCl (Hydrochloric Acid, 0.5 M/L), and relevant apparatus (spatulas, pipettes, Vortex). 2 mL of the sterile distilled water was then added into the glass vial of Fmoc-Phe-Phe, and the mixture was vortexed for a few seconds to create a suspension. Afterwards, approximate 100 μL of NaOH was gradually pipetted into the suspension (20 μL each pipetting) and the mixture was vortexed after every addition of the alkaline. The whole mixture was shaken continually until a homogeneous transparent solution was obtained. The basic peptide solution (pH around 10) was finally neutralized to pH 7 by dropwise addition of HCl and pH values were monitored by a pH meter with a micro-probe.
The above peptide solutions of physiological pH were aliquoted into a 24 well-plate with 500 μL in each well and the well plate was maintained in a 37° C./5% CO2 incubator overnight. The solution underwent a self-assembling to become hydrogels. Human adult dermal fibroblasts in suspension were then poured on top of the self-assembled hydrogels with 1 mL cell suspension for each well. Cell suspensions of 8×10^4/mL were used with a serum-free DMEM (Dulbecco's modified Eagle's medium) supplemented by 1% antibiotics/antimicotics. […] These originally spreaded cells, however, became rounded with a diameter of around 10 microns between 24 and 72 hours. The phenomenon indicated of a dynamic solid (gel)-liquid (culture medium) interface which formed a malleable, unstable gel surface to wrap and sink cells into the interacted nano-filaments of the gel structure resulting the cells' rounding up.

[3] = test system: human adult dermal fibroblast; assay: 3D culture inside peptide gels, cell shape; conditions: 10 mM/L gel, cells seeded inside the gel
Procedure: With 10 mM/L Fmoc-Phe-Phe-OH self-assembled hydrogels, human adult dermal fibroblast were also seeded 3 dimensionally (3D culture) inside the peptide gels. […] Despite proliferation, whether ECM components (proteins and saccharides) were synthesized and secreted by these cells is another way to justify cells' reaction to the material. However, viability of the cells is of necessity to maintain a steady ECM secretion or to restore proliferation after possible cell spreading at later time points.

[4] = test system: Human dermal fibroblasts
Description: In order to coarsely test cell viability, a Live/Dead assay was chosen in which two reagents of EthD-1 and Calcine AM were involved. […] With the help of this staining and fluorescence microscope, living and dead cells could be easily visualized therefore viability inside the culture is measured.
as §1, with “For making Fmoc-Phe-Phe-OH peptide solution,” for “Generally,”, “Fmoc-Phe-Phe-OH,” for “Fmoc-Phe-Phe,”, “The whole mixture was shaken continually until a homogeneous transparent solution was obtained.” left out, “micro-probe. […]” for “micro-probe.”

`O=C(N[C@@H](Cc1ccccc1)C(=O)N[C@@H](Cc1ccccc1)C(=O)O)OCC1c2ccccc2-c2ccccc21` [Entry 1, Fmoc-Phe-Phe-OH] (Fmoc-Phe-Phe-OH) was tested, and the “retention of morphological phenotype and proliferation of chondrocytes” value [1] was “cell morphological phenotype is retained”, the “appearance of fibroblasts on top of hydrogel” value (“appearance of fibroblasts” for short) ([2]; 4 hours, 2D culture) was “spreaded” and the “appearance of fibroblasts” value ([2]; 6 hours, 2D culture) was “spreaded”. The “appearance of fibroblasts” value ([2]; 24 hours, 2D culture) was “rounded”, the “diameter of rounded cells” value ([2]; between 24 and 72 hours, 2D culture) was “around 10 microns” and the “cell attachment and spreading” value ([2]; within the first 8 hours of culturing, 2D) was “cell attachment and spreading was observed”. For the same compound, the “cell shape in 3D culture” value [3] was “oval to round cell shape remained for a long term”, the “cell viability (live/dead staining)” value [4] was “majority of cells were shown to be living” and the “cell spreading in the gel” value ([4]; during the first 3 days, 3D culture) was “did not complete spreading”.
